From US9340590B2 (priority 2011, dated 2016)
Positions of bridges follow the written chain, without caps; N, C: chain ends. Residues, ends and D or L forms follow the SMILES beside them.

Tests used:
Test in all cases: cell-based
hNav1.5 = hNav1.5 (Homo sapiens, UniProt Q14524); conditions: IonWorks Quattro, Use; read-out: IWQ Use Nav1.5
hNav1.7 = hNav1.7 (Homo sapiens, UniProt Q15858); assay type: cell-based; conditions: IonWorks Quattro, Use; read-out: IWQ Use Nav1.7
hNav1.3 = hNav1.3 (Homo sapiens, UniProt Q9NY46); conditions: IonWorks Quattro, Use; read-out: IWQ Use Nav1.3
hNav1.3, sequence (Q9NY46 whole entry, looked up): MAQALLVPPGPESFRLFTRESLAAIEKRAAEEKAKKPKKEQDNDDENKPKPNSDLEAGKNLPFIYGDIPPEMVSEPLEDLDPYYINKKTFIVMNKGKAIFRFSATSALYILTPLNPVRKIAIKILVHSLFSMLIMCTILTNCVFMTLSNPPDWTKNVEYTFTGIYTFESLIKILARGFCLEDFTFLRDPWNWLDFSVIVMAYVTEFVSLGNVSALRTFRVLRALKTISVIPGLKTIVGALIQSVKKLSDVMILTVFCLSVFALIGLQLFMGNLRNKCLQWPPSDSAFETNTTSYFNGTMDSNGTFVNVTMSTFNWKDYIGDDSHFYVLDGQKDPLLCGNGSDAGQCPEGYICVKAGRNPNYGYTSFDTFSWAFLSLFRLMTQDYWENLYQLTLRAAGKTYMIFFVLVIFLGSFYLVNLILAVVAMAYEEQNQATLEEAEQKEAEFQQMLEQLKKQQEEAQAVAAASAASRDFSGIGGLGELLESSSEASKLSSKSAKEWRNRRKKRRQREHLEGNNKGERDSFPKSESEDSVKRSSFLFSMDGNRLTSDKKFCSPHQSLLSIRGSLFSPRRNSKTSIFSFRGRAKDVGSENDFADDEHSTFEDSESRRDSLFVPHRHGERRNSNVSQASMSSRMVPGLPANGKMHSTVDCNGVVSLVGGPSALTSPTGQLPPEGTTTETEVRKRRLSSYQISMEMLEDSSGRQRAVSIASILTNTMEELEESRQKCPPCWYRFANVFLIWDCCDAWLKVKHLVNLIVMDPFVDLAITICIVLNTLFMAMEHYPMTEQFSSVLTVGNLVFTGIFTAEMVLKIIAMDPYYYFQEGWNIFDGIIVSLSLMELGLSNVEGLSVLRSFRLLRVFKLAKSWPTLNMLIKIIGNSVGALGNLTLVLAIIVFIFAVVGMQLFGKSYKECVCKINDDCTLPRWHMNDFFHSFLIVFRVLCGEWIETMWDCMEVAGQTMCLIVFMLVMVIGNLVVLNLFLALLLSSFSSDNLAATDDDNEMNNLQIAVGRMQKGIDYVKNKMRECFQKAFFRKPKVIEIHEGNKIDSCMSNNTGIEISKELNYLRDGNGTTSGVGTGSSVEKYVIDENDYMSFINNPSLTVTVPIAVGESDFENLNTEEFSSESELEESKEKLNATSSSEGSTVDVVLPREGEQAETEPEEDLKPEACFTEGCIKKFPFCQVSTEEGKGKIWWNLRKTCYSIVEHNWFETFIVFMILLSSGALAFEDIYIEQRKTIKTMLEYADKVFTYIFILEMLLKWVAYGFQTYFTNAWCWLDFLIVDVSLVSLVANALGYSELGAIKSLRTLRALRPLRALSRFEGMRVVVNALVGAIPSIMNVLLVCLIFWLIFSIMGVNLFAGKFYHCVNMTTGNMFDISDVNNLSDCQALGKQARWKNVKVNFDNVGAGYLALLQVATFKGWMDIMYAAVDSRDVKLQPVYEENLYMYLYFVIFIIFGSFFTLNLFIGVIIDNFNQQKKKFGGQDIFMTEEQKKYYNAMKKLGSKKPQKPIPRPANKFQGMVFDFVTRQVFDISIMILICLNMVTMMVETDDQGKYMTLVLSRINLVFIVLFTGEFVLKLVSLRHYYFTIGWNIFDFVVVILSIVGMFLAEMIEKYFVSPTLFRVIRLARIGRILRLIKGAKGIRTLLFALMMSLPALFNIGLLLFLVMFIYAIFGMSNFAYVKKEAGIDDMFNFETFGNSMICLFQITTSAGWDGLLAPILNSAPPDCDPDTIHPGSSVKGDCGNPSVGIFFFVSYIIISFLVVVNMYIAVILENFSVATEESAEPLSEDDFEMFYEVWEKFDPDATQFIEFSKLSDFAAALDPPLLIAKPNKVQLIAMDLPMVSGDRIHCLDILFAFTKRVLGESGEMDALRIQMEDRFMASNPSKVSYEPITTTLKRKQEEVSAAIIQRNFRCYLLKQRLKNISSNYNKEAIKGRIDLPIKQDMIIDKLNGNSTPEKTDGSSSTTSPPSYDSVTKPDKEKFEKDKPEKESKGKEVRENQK

hNav1.5, sequence (Q14524 whole entry, looked up): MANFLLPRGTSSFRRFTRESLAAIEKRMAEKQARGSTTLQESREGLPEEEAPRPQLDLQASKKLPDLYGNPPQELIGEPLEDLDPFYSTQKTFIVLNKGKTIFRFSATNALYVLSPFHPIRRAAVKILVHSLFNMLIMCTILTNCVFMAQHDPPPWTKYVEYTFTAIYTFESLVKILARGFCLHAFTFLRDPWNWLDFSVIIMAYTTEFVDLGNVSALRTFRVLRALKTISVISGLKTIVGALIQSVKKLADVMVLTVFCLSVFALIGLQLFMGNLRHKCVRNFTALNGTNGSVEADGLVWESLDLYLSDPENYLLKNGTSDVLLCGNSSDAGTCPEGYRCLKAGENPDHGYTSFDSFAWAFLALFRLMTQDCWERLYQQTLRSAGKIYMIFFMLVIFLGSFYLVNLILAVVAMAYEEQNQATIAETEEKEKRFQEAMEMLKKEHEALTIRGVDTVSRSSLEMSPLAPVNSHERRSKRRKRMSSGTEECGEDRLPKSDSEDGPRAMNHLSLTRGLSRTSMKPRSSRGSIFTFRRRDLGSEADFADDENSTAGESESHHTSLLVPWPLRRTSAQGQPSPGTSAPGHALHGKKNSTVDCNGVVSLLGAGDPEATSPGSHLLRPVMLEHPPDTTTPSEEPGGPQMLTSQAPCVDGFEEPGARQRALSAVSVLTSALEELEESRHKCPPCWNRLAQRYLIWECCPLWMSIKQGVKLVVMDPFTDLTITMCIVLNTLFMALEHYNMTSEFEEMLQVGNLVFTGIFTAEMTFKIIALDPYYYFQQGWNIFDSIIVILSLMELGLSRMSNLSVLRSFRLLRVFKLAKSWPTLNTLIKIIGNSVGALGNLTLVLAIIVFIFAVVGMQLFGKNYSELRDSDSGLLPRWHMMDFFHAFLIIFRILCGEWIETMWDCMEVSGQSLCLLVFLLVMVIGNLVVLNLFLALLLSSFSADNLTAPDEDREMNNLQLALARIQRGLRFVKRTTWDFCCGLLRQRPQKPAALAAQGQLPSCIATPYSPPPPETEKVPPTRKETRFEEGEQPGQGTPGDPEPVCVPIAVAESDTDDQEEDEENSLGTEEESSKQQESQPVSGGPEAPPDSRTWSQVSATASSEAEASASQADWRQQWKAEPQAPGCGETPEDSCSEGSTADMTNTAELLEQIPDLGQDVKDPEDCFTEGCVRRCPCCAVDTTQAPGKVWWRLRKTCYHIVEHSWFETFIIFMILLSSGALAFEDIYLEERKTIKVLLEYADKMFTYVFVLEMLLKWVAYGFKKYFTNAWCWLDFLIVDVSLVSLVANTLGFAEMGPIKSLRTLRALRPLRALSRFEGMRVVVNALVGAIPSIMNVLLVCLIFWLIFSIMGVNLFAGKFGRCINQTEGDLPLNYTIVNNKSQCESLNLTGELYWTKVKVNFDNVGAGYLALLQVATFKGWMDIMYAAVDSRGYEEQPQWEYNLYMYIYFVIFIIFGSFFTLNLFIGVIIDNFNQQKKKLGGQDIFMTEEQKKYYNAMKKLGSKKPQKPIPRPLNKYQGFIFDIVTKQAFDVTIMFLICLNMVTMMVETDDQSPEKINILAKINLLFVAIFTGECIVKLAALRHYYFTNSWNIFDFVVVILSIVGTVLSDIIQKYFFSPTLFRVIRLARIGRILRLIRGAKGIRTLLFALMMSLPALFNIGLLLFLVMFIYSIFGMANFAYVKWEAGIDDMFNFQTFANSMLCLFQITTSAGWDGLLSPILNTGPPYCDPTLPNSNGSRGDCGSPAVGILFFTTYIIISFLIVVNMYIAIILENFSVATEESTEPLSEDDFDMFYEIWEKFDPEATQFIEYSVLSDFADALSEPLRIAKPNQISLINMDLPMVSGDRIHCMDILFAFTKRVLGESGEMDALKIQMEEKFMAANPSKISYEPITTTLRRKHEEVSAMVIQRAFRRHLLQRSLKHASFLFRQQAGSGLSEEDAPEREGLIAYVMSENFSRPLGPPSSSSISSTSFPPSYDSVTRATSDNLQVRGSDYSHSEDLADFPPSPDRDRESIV

| Structure (SMILES) | IC50 (hNav1.5) | IC50 (hNav1.7) | IC50 (hNav1.3) |
| --- | --- | --- | --- |
| CC[C@H](C)[C@@H]1NC(=O)[C@@H]2CSSC[C@@H]3NC(=O)[C@H](C(C)C)NC(=O)[C@H](CC(C)C)NC(=O)[C@H](CC(N)=O)NC(=O)[C@@H]4CCCN4C(=O)[C@H](CCCNC(=N)N)NC(=O)[C@H](CSSC[C@H](NC(=O)[C@@H](N)CC(=O)O)C(=O)N[C@@H](CC(C)C)C(=O)NCC(=O)N[C@@H](Cc4ccccc4)C(=O)N[C@@H](CCSC)C(=O)N[C@@H](CCCNC(=N)N)C(=O)N[C@@H](CCCCN)C(=O)N2)NC(=O)[C@H](CSSC[C@@H](C(=O)N[C@@H](CCCCN)C(=O)N[C@@H](Cc2ccc(O)cc2)C(=O)N[C@H](C(=O)N[C@@H](Cc2ccccc2)C(N)=O)C(C)C)NC(=O)[C@H](Cc2c[nH]c4ccccc24)NC(=O)[C@H](CCCCN)NC(=O)[C@H](Cc2c[nH]cn2)NC(=O)[C@H]([C@@H](C)O)NC(=O)[C@H](CCCNC(=N)N)NC(=O)[C@H](CO)NC3=O)NC(=O)[C@H](CCCCN)NC(=O)[C@H](CC(=O)O)NC(=O)[C@H](CC(N)=O)NC(=O)[C@H](CC(C)C)NC(=O)[C@@H]2CCCN2C1=O [compound 193] (H-DCLGFMRKCIPLNDKCCRPNLVCSRTHKWCKYVF-NH2; disulfide 2-17, 9-23, 16-30) | 6830 nM | 80 nM | 71 nM |
| CC[C@H](C)[C@@H]1NC(=O)[C@@H]2CSSC[C@@H]3NC(=O)[C@H](C(C)C)NC(=O)[C@H](CC(C)C)NC(=O)[C@H](CC(N)=O)NC(=O)[C@@H]4CCCN4C(=O)[C@H](CCCNC(=N)N)NC(=O)[C@H](CSSC[C@H](NC(=O)[C@@H](N)CC(=O)O)C(=O)N[C@@H](CC(C)C)C(=O)NCC(=O)N[C@@H](Cc4ccccc4)C(=O)N[C@@H](CCSC)C(=O)N[C@@H](CCCNC(=N)N)C(=O)N[C@@H](CCCCN)C(=O)N2)NC(=O)[C@H](CSSC[C@@H](C(=O)N[C@@H](CCCCN)C(=O)N[C@@H](Cc2ccc(O)cc2)C(=O)N[C@H](C(=O)N[C@@H](Cc2ccccc2)C(N)=O)C(C)C)NC(=O)[C@H](Cc2c[nH]c4ccccc24)NC(=O)[C@H](CCCCN)NC(=O)[C@H](Cc2c[nH]cn2)NC(=O)[C@H]([C@@H](C)O)NC(=O)[C@H](CCCNC(=N)N)NC(=O)[C@H](CO)NC3=O)NC(=O)[C@H](CCCCN)NC(=O)[C@H](CC(=O)O)NC(=O)[C@H](CC(N)=O)NC(=O)CNC(=O)[C@@H]2CCCN2C1=O [compound 194] (H-DCLGFMRKCIPGNDKCCRPNLVCSRTHKWCKYVF-NH2; disulfide 2-17, 9-23, 16-30) | 8760 nM | 75 nM | 47 nM |
| CC[C@H](C)[C@@H]1NC(=O)[C@@H]2CCCN2C(=O)[C@H]([C@@H](C)CC)NC(=O)[C@@H]2CSSC[C@@H]3NC(=O)[C@H](C(C)C)NC(=O)[C@H](CC(C)C)NC(=O)[C@H](CC(N)=O)NC(=O)[C@@H]4CCCN4C(=O)[C@H](CCCNC(=N)N)NC(=O)[C@H](CSSC[C@H](NC(=O)[C@@H](N)CC(=O)O)C(=O)N[C@@H](CC(C)C)C(=O)NCC(=O)N[C@@H](Cc4ccccc4)C(=O)N[C@@H](CCSC)C(=O)N[C@@H](CCCNC(=N)N)C(=O)N[C@@H](CCCCN)C(=O)N2)NC(=O)[C@H](CSSC[C@@H](C(=O)N[C@@H](CCCCN)C(=O)N[C@@H](Cc2ccc(O)cc2)C(=O)N[C@H](C(=O)N[C@@H](Cc2ccccc2)C(N)=O)C(C)C)NC(=O)[C@H](Cc2c[nH]c4ccccc24)NC(=O)[C@H](CCCCN)NC(=O)[C@H](Cc2c[nH]cn2)NC(=O)[C@H]([C@@H](C)O)NC(=O)[C@H](CCCNC(=N)N)NC(=O)[C@H](CO)NC3=O)NC(=O)[C@H](CCCCN)NC(=O)[C@H](CC(=O)O)NC(=O)[C@H](CC(N)=O)NC1=O [compound 195] (H-DCLGFMRKCIPINDKCCRPNLVCSRTHKWCKYVF-NH2; disulfide 2-17, 9-23, 16-30) | 18300 nM | 662 nM | 607 nM |
| CC[C@H](C)[C@@H]1NC(=O)[C@@H]2CSSC[C@@H]3NC(=O)[C@H](C(C)C)NC(=O)[C@H](CC(C)C)NC(=O)[C@H](CC(N)=O)NC(=O)[C@@H]4CCCN4C(=O)[C@H](CCCNC(=N)N)NC(=O)[C@H](CSSC[C@H](NC(=O)[C@@H](N)CC(=O)O)C(=O)N[C@@H](CC(C)C)C(=O)NCC(=O)N[C@@H](Cc4ccccc4)C(=O)N[C@@H](CCSC)C(=O)N[C@@H](CCCNC(=N)N)C(=O)N[C@@H](CCCCN)C(=O)N2)NC(=O)[C@H](CSSC[C@@H](C(=O)N[C@@H](CCCCN)C(=O)N[C@@H](Cc2ccc(O)cc2)C(=O)N[C@H](C(=O)N[C@@H](Cc2ccccc2)C(N)=O)C(C)C)NC(=O)[C@H](Cc2c[nH]c4ccccc24)NC(=O)[C@H](CCCCN)NC(=O)[C@H](Cc2c[nH]cn2)NC(=O)[C@H]([C@@H](C)O)NC(=O)[C@H](CCCNC(=N)N)NC(=O)[C@H](CO)NC3=O)NC(=O)[C@H](CCCCN)NC(=O)[C@H](CC(=O)O)NC(=O)[C@H](CC(N)=O)NC(=O)[C@H]([C@@H](C)O)NC(=O)[C@@H]2CCCN2C1=O [compound 196] (H-DCLGFMRKCIPTNDKCCRPNLVCSRTHKWCKYVF-NH2; disulfide 2-17, 9-23, 16-30) | 7080 nM | 97 nM | 74 nM |
| CC[C@H](C)[C@@H]1NC(=O)[C@@H]2CSSC[C@@H]3NC(=O)[C@H](C(C)C)NC(=O)[C@H](CC(C)C)NC(=O)[C@H](CC(N)=O)NC(=O)[C@@H]4CCCN4C(=O)[C@H](CCCNC(=N)N)NC(=O)[C@H](CSSC[C@H](NC(=O)[C@@H](N)CC(=O)O)C(=O)N[C@@H](CC(C)C)C(=O)NCC(=O)N[C@@H](Cc4ccccc4)C(=O)N[C@@H](CCSC)C(=O)N[C@@H](CCCNC(=N)N)C(=O)N[C@@H](CCCCN)C(=O)N2)NC(=O)[C@H](CSSC[C@@H](C(=O)N[C@@H](CCCCN)C(=O)N[C@@H](Cc2ccc(O)cc2)C(=O)N[C@H](C(=O)N[C@@H](Cc2ccccc2)C(N)=O)C(C)C)NC(=O)[C@H](Cc2c[nH]c4ccccc24)NC(=O)[C@H](CCCCN)NC(=O)[C@H](Cc2c[nH]cn2)NC(=O)[C@H]([C@@H](C)O)NC(=O)[C@H](CCCNC(=N)N)NC(=O)[C@H](CO)NC3=O)NC(=O)[C@H](CCCCN)NC(=O)[C@H](CC(=O)O)NC(=O)[C@H](CC(N)=O)NC(=O)[C@H](Cc2ccc(O)cc2)NC(=O)[C@@H]2CCCN2C1=O [compound 197] (H-DCLGFMRKCIPYNDKCCRPNLVCSRTHKWCKYVF-NH2; disulfide 2-17, 9-23, 16-30) | 6920 nM | 98 nM | 42 nM |
| CC[C@H](C)[C@@H]1NC(=O)[C@@H]2CSSC[C@@H]3NC(=O)[C@H](C(C)C)NC(=O)[C@H](CC(C)C)NC(=O)CNC(=O)[C@@H]4CCCN4C(=O)[C@H](CCCNC(=N)N)NC(=O)[C@H](CSSC[C@H](NC(=O)[C@@H](N)CC(=O)O)C(=O)N[C@@H](CC(C)C)C(=O)NCC(=O)N[C@@H](Cc4ccccc4)C(=O)N[C@@H](CCSC)C(=O)N[C@@H](CCCNC(=N)N)C(=O)N[C@@H](CCCCN)C(=O)N2)NC(=O)[C@H](CSSC[C@@H](C(=O)N[C@@H](CCCCN)C(=O)N[C@@H](Cc2ccc(O)cc2)C(=O)N[C@H](C(=O)N[C@@H](Cc2ccccc2)C(N)=O)C(C)C)NC(=O)[C@H](Cc2c[nH]c4ccccc24)NC(=O)[C@H](CCCCN)NC(=O)[C@H](Cc2c[nH]cn2)NC(=O)[C@H]([C@@H](C)O)NC(=O)[C@H](CCCNC(=N)N)NC(=O)[C@H](CO)NC3=O)NC(=O)[C@H](CCCCN)NC(=O)[C@H](CC(=O)O)NC(=O)[C@H](CC(N)=O)NC(=O)[C@H](CC(=O)O)NC(=O)[C@@H]2CCCN2C1=O [compound 198] (H-DCLGFMRKCIPDNDKCCRPGLVCSRTHKWCKYVF-NH2; disulfide 2-17, 9-23, 16-30) | 9750 nM | 229 nM | 126 nM |
